Data set [1] concerns DBA/2 mice. In words: Anticonvulsant activity: audiogenic seizures in DBA/2 mice. It counts as in vivo. Particulars: for effect on tonic phase of audiogenic seizures / effect on clonic phase of audiogenic seizures / effect on tonic and clonic phase of audiogenic seizures: 30 min after i.p. administration; for ED50: Mus musculus, ip, 0.5 h, 30 minutes after drug administration; for behavioural changes: all dosages tested. The text has this:
DBA/2 mice weighing 6-12 g (22-26 days old; either sex, Harlan Italy Correzzana, Milano, Italy) are housed in groups of 8-10 under a 12-h light/dark cycle (lights on at 7:00 a.m.) with food and water available ad libitum. The experimental protocol is approved by University of Catanzaro Ethical Committee. All procedures are in compliance with the Nationals Institutes of Health Guide for Care and Use of Laboratory Animals (Publication No. 85-23, revised 1985) and European Communities Council Directive of 24 Nov. 1986 (86/609 EEC).
The experiments are performed according to the method previously described by De Sarro et al. (1984), Eur. J. Pharmacol., 104, 55-60. Compounds of the invention or vehicle (controls) are given intraperitoneally (i.p.) and orally (p.o.) as freshly sonicated solutions in methylcellulose 1%. For the […]; pretreatment time at 30 and 60 min., For oral treatment, all animals are pretreated either at 30 or 60 min using the compounds of the invention at doses of 0.1, 0.3, 3, 6 and 10 mg/kg p.o. At least 10 mice per dose are used. After pretreatment time, each mouse is placed under a hemispheric perspex dome (58 cm in diameter) and 1 min is allowed for habituation and assessment of locomotor activity. Animals are challenged with a 12-16 kHz sinusoidal tone at 109 dB. Seizure response is assessed by two independent observers. The sound evoked behaviour is coded using the following scale: 0=no response, 1=wild running, 2=clonus, 3=tonic flexor and/or extensor; 4=respiratory arrest, on the basis of the concordant opinion of the observers. […] The maximum response is recorded for each animal. Rectal temperature is recorded immediately prior to auditory testing using an Elektrolaboratoriet thermometer type T.E.3. Behavioral changes are observed during the period between drug administration and auditory testing. In these experiments separate vehicle-treated and drug-treated groups are used at each pretreatment time (15 min-60 min). Percentage of mice showing wild running, clonic or tonic phase and the duration of anticonvulsant activity are compared to control group and statistically analyzed.
Statistical comparison between groups of control and drug-treated DBA/2 mice is made using Fisher's exact probability test (incidence of the seizure phases). The percentage incidence of each phase of the audiogenic seizure is determined for each drug. These values are plotted against the corresponding doses by a computer construction of the dose-effect curves for calculation of ED50 (with 95% confidence limits). The ED50 values for each compound are calculated using a computer program of the method of Litchfield and Wilcoxon (1949). At least 32 animals are used to calculate each ED50 value.
For systemic injections and oral administrations, all compounds are given intraperitoneally (0.1 ml/10 g of body weight of the mouse) as a freshly prepared solution in methylcellulose 1%. In order to avoid the light sensitivity, weighing and handling are carried out under sodium vapor lamps and the substances are protected from light during the experiments.

The subject of data set [2] is DBA/2 mice. In words: Interaction studies in DBA/2 mice: Compound 1 + vehicle, sumatriptan or SB 258741 (audiogenic seizures). The class given is in vivo. The settings on record: pre-treatment 3 mg/kg, i.p.; for effect of pre-treatment on the anti-epileptic activity (dose-response curve) of Compound 1: 5 min before Compound 1. Here is the method:
The experiments are performed according to the method previously described by De Sarro et al. (1984), Eur. J. Pharmacol., 104, 55-60. Compounds of the invention or vehicle (controls) are given intraperitoneally (i.p.) and orally (p.o.) as freshly sonicated solutions in methylcellulose 1%. For the i.p. treatment compounds of the invention are given at doses of 0.1, 0.3, 3, 10, 15, 20 and 30 mg/kg; pretreatment time at 30 and 60 min., For oral treatment, all animals are pretreated either at 30 or 60 min using the compounds of the invention at doses of 0.1, 0.3, 3, 6 and 10 mg/kg p.o. At least 10 mice per dose are used. After pretreatment time, each mouse is placed under a hemispheric perspex dome (58 cm in diameter) and 1 min is allowed for habituation and assessment of locomotor activity. Animals are challenged with a 12-16 kHz sinusoidal tone at 109 dB. Seizure response is assessed by two independent observers. The sound evoked behaviour is coded using the following scale: 0=no response, 1=wild running, 2=clonus, 3=tonic flexor and/or extensor; 4=respiratory arrest, on the basis of the concordant opinion of the observers. […] The maximum response is recorded for each animal. Rectal temperature is recorded immediately prior to auditory testing using an Elektrolaboratoriet thermometer type T.E.3. Behavioral changes are observed during the period between drug administration and auditory testing. In these experiments separate vehicle-treated and drug-treated groups are used at each pretreatment time (15 min-60 min). Percentage of mice showing wild running, clonic or tonic phase and the duration of anticonvulsant activity are compared to control group and statistically analyzed.

The target of the next data set is T1, 5-HT1A (Rattus norvegicus, UniProt P19327).
T1 construct: from tissue; host or cells: whole animal (in vivo behavioural test)
T1 sequence (P19327 whole entry): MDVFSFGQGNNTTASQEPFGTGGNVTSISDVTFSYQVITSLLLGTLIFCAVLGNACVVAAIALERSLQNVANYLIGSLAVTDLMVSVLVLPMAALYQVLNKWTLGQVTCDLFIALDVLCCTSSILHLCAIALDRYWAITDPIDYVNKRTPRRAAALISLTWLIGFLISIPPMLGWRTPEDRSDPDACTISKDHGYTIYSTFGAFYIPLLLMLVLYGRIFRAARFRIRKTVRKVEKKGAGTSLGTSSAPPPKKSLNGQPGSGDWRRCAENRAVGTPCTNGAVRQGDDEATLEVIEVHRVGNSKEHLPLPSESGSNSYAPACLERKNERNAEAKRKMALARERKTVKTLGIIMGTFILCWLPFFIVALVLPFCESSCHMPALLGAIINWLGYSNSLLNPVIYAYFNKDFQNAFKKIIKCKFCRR
As to the kind of experiment: In vivo 5-HT1A agonism: lower lip retraction (LLR). The settings on record: 60 minutes after oral administration. Here is the method: Lower lip retraction was measured according to the method described by Berendsen et al., (Pharmacol. Biochem. Behav. 33, (1989), 821-827).

[3] abbreviates: i.p. administration, read-out: ED50 Clonic seizures.
[4] abbreviates: i.p. administration, read-out: ED50 Wild running.
[5] abbreviates: i.p. administration, read-out: ED50 Tonic extension.

“Also recorded” adds a separate entry of the source. Where two headings read alike, the source gives them in different places. Some results are limits rather than exact numbers.

For `CCCN(CCC)C1CCc2cccc(O)c2C1` (centres unmarked) [Compound 8-OH-DPAT, 8-hydroxy-2-(di-n-propylamino)tetralin], the “effect on tonic phase of audiogenic seizures” value in the data set on DBA/2 mice [1] (0.3, 1, 3, 10 mg/kg) is “did not significantly antagonized”; in the data set on DBA/2 mice [1] (15 and 20 mg/kg), “able to significantly (P<0.01 and P<0.05) antagonize”. Besides, the “effect on clonic phase of audiogenic seizures” value with DBA/2 mice [1] (0.3, 1, 3, 10, 15 and 20 mg/kg) is “did not significantly antagonized”. For the same molecule, the ED50 was 15 mg/kg in the data set with DBA/2 mice [1] (read-out: ED50 Tonic extension, i.p. administration); over 20 mg/kg in the data set on DBA/2 mice [1] (setting [3]); over 20 mg/kg in the data set on DBA/2 mice [1] (setting [4]). Further, in the data set with DBA/2 mice [1] (i.p. administration), the behavioural changes result was “At none of the dosages tested”.
Regarding `Cc1cccc(S(=O)(=O)N2CCC[C@@H]2CCN2CCC(C)CC2)c1` [SB258741], the “effect of pre-treatment on the anti-epileptic activity (dose-response curve) of Compound 1” value with DBA/2 mice [2] is recorded as “shift the dose-response curve of COMPOUND 1 to the right; also recorded: partly antagonized”. Also, the “effect on tonic phase of audiogenic seizures” value with DBA/2 mice [1] (15 mg/kg) is reported as “able to significantly (P<0.01) antagonize”. Moreover, the “effect on clonic phase of audiogenic seizures” value with DBA/2 mice [1] (1, 3, 10 and 15 mg/kg) is recorded as “did not significantly antagonize”. Further, the ED50 is over 15 mg/kg in the data set with DBA/2 mice [1] (setting [3]), about 12 mg/kg with DBA/2 mice [1] (setting [5]) and over 15 mg/kg in the data set on DBA/2 mice [1] (setting [4]). In the data set with DBA/2 mice [1] (i.p. administration), the behavioural changes entry is “At none of the dosages tested”.
For the molecule `O=C(NCCN1CCN(c2cccc3c2OC[C@H](CO)O3)CC1)c1ccc(F)cc1` [flesinoxan], the ED50 on 5-HT1A is 0.22 mg/kg; in the data set on DBA/2 mice [1] (setting [3]), 9.37 mg/kg; with DBA/2 mice [1] (setting [5]), 7.74 mg/kg; with DBA/2 mice [1] (setting [4]), over 15 mg/kg. For the same molecule, the “effect on tonic and clonic phase of audiogenic seizures” value is listed as “did not significantly antagonized” in the data set with DBA/2 mice [1] (0.3, 1, 3, 5 and 7,5 mg/kg); “able to significantly (P<0.0.1) antagonize” in the data set on DBA/2 mice [1] (10 and 15 mg/kg). Further, the behavioural changes result with DBA/2 mice [1] (i.p. administration) is reported as “At none of the dosages tested”.
Regarding `CNS(=O)(=O)Cc1ccc2[nH]cc(CCN(C)C)c2c1` [sumatriptan, reference compound], the “potency in shifting the dose-response curve of Compound 1, compared” value in the data set on DBA/2 mice [2] (5 min before) is “more potent than SB 258741”. In the data set on DBA/2 mice [2], the “effect of pre-treatment on the anti-epileptic activity (dose-response curve) of Compound 1” value is recorded as “shift the dose-response curve of COMPOUND 1 to the right; also recorded: partly antagonized”.
